Assay results published in patent US11040035B2, “3-oxo-2,6-diphenyl-2,3-dihydropyridazine-4-carboxamides” (BAYER PHARMA AKTIENGESELLSCHAFT, priority 2016, dated 2021).

Columns and labels:
[1] = target: T1, AHR (Homo sapiens, UniProt P35869); assay: In vitro assay 1: antagonism in human cell line (transactivation assay, kynurenic acid prestimulated); details: Assay 1: AHR-luc Hum Antagonism IC50 [M], 150 μM kynurenic acid, 20 hours, firefly luciferase
T1 sequence (P35869 11-848): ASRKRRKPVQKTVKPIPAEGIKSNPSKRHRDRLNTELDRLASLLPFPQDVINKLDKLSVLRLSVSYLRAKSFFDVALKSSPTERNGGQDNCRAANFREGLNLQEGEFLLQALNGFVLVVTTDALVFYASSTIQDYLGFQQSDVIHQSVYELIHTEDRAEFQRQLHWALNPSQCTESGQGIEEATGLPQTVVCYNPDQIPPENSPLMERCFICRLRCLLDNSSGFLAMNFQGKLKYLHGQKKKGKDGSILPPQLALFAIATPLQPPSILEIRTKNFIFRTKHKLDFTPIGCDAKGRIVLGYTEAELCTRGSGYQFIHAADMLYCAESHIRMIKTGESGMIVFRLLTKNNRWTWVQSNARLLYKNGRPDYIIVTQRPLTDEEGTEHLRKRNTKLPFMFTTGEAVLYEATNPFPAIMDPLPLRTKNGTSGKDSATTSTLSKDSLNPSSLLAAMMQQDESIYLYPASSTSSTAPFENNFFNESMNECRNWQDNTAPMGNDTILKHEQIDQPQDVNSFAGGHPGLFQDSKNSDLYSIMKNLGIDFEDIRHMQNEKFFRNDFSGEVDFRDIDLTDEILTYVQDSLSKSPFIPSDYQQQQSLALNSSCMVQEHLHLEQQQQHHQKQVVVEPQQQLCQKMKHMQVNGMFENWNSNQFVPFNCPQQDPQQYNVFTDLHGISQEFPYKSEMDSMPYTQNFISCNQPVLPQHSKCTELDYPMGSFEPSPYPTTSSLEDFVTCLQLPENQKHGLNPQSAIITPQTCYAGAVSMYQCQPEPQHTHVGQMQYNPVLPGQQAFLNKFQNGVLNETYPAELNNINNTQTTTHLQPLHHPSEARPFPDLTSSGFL

[2] = target: T1, AHR; assay: In vitro assay 2: agonism in human cell line (transactivation assay)
[3] = Assay 2: AHR-luc Hum Agonism IC50 [M], no kynurenic acid, 20 hours, firefly luciferase
[4] = read-out: Assay 2: AHR-luc Hum Agonism IC50, no kynurenic acid, 20 hours, firefly luciferase

Compound	IC50 [1]	IC50 [2, 3]	IC50 [2, 4]
CC(C)C(O)CNC(=O)c1cc(-c2ccc(C(F)(F)F)cc2)nn(-c2cccc(F)c2)c1=O (racemic) [Example 241, 2-(3-Fluorophenyl)-N-[(2RS)-2-hydroxy-3-methylbutyl]-3-oxo-6-[4-(trifluoromethyl)phenyl]-2,3-dihydropyridazine-4-carboxamide]	> 2e-05 M	1.16e-07 M	–
O=C(NCCC1(O)CCCCC1)c1cc(-c2ccc(Cl)cc2)nn(-c2cccc(F)c2)c1=O [Example 320, 6-(4-chlorophenyl)-2-(3-fluorophenyl)-N-[2-(1-hydroxycyclohexyl)ethyl]-3-oxo-2,3-dihydropyridazine-4-carboxamide]	3.62e-07 M	> 2e-05 M	–
CC(C)(C)OC(=O)N1C[C@H](O)[C@H](NC(=O)c2cc(-c3ccc(Cl)cc3)nn(-c3cccc(F)c3)c2=O)C1 [Example 387, tert-butyl (3R,4S)-3-({[6-(4-chlorophenyl)-2-(3-fluorophenyl)-3-oxo-2,3-dihydropyridazin-4-yl]carbonyl}amino)-4-hydroxypyrrolidine-1-carboxylate]	3.5e-07 M	> 2e-05 M	–
O=C(NC(CO)C1CCOC1)c1cc(-c2ccc(Cl)c(Cl)c2)nn(-c2cccc(F)c2)c1=O (stereo not shown) [Example 307, 6-(3,4-Dichlorophenyl)-2-(3-fluorophenyl)-N-[2-hydroxy-1-(tetrahydrofuran-3-yl)ethyl]-3-oxo-2,3-dihydropyridazine-4-carboxamide]	2.22e-07 M	> 2e-05 M	–
O=C(NC(CO)C1CCCO1)c1cc(-c2ccc(Cl)cc2)nn(-c2cccc(F)c2)c1=O (single isomer, unassigned) [Example 316, 1,4-anhydro-5-({[6-(4-chlorophenyl)-2-(3-fluorophenyl)-3-oxo-2,3-dihydropyridazin-4-yl]carbonyl}amino)-2,3,5-trideoxyhexitol]	3.7e-07 M	> 2e-05 M	–
Cc1ccc(-c2cc(C(=O)NCC(C)O)c(=O)n(-c3cccc(F)c3)n2)cc1 (single isomer, unassigned; enantiomer 1) [Example 14, 2-(3-Fluorophenyl)-N-(2-hydroxypropyl)-6-(4-methylphenyl)-3-oxo-2,3-dihydropyridazine-4-carboxamide, Enantiomer 1]	1.75e-07 M	> 2e-05 M	–
C[C@@H](CO)NC(=O)c1cc(-c2ccc(Cl)c(F)c2)nn(-c2cc(F)cc(F)c2)c1=O [Example 402, 6-(4-chloro-3-fluorophenyl)-2-(3,5-difluorophenyl)-N-[(2S)-1-hydroxypropan-2-yl]-3-oxo-2,3-dihydropyridazine-4-carboxamide]	3.7e-07 M	> 2e-05 M	–
O=C(NC(CO)C1CCOC1)c1cc(-c2ccc(Cl)c(F)c2)nn(-c2cccc(F)c2)c1=O (single isomer, unassigned) [Example 292, 6-(4-Chloro-3-fluorophenyl)-2-(3-fluorophenyl)-N-[2-hydroxy-1-(tetrahydrofuran-3-yl)ethyl]-3-oxo-2,3-dihydropyridazine-4-carboxamide]	3.09e-07 M	> 2e-05 M	–
O=C(NCC(O)C(F)(F)F)c1cc(-c2ccc(Cl)c(F)c2)nn(-c2cc(F)cc(F)c2)c1=O (single isomer, unassigned) [Example 404, 6-(4-chloro-3-fluorophenyl)-2-(3,5-difluorophenyl)-3-oxo-N-(3,3,3-trifluoro-2-hydroxypropyl)-2,3-dihydropyridazine-4-carboxamide]	2.7e-07 M	> 2e-05 M	–
O=C(NCC(O)C(F)(F)F)c1cc(-c2ccc(Cl)cc2)nn(-c2cccc(Cl)c2)c1=O (single isomer, unassigned) [Example 64, 2-(3-Chlorophenyl)-6-(4-chlorophenyl)-3-oxo-N-(3,3,3-trifluoro-2-hydroxypropyl)-2,3-dihydropyridazine-4-carboxamide]	3.66e-07 M	–	> 2e-05 M
O=C(NCC(O)C(F)(F)F)c1cc(-c2ccc(Cl)cc2)nn(-c2cccc(C(F)F)c2)c1=O (stereo not shown) [Example 389, 6-(4-chlorophenyl)-2-[3-(difluoromethyl)phenyl]-3-oxo-N-(3,3,3-trifluoro-2-hydroxypropyl)-2,3-dihydropyridazine-4-carboxamide]	8.8e-07 M	> 2e-05 M	–
O=C(N[C@@H](CO)C(=O)O)c1cc(-c2ccc(Cl)cc2)nn(-c2cccc(F)c2)c1=O [Example 165, N-{[6-(4-Chlorophenyl)-2-(3-fluorophenyl)-3-oxo-2,3-dihydropyridazin-4-yl]carbonyl}-L-serine]	> 2e-05 M	> 2e-05 M	–

The remaining lines, values ahead:

IC50 [1]	IC50 [2, 3]	IC50 [2, 4]	Compound
8.37e-08 M	> 2e-05 M	–	O=C(NC(CO)C1CCOC1)c1cc(-c2ccc(OC(F)F)cc2)nn(-c2cccc(F)c2)c1=O (stereo not shown) [Example 144, 6-[4-(Difluoromethoxy)phenyl]-2-(3-fluorophenyl)-N-{(2-hydroxy-1-tetrahydrofuran-3-yl)ethyl}-3-oxo-2,3-dihydropyridazine-4-carboxamide]
9e-08 M	> 2e-05 M	–	CC(C)(O)CNC(=O)c1cc(-c2ccc(OC(F)(F)F)cc2)nn(-c2cccc(F)c2)c1=O [Example 382, 2-(3-fluorophenyl)-N-(2-hydroxy-2-methylpropyl)-3-oxo-6-[4-(trifluoromethoxy)phenyl]-2,3-dihydropyridazine-4-carboxamide]
3.87e-08 M	> 2e-05 M	–	O=C(NC(CO)C1CCOC1)c1cc(-c2ccc(Cl)cc2)nn(-c2cccc(F)c2)c1=O (stereo not shown) [Example 38, 6-(4-Chlorophenyl)-2-(3-fluorophenyl)-N-[2-hydroxy-1-(tetrahydrofuran-3-yl)ethyl]-3-oxo-2,3-dihydropyridazine-4-carboxamide]
1.7e-07 M	> 2e-05 M	–	C[C@@H](CO)NC(=O)c1cc(-c2ccc(OC(F)F)cc2)nn(-c2cccc(F)c2)c1=O [Example 155, 6-[4-(Difluoromethoxy)phenyl]-2-(3-fluorophenyl)-N-[(2S)-1-hydroxypropan-2-yl]-3-oxo-2,3-dihydropyridazine-4-carboxamide]
1.2e-08 M	> 2e-05 M	–	CC[C@@H](CO)NC(=O)c1cc(-c2ccc(C(F)F)cc2)nn(-c2cccc(F)c2)c1=O [Example 92, 6-[4-(Difluoromethyl)phenyl]-2-(3-fluorophenyl)-N-[(2S)-1-hydroxybutan-2-yl]-3-oxo-2,3-dihydropyridazine-4-carboxamide]
1.51e-07 M	–	> 2e-05 M	O=C(N[C@@H]1CCCC[C@@H]1O)c1cc(-c2ccc(Cl)cc2)nn(-c2cccc(F)c2)c1=O (single isomer, unassigned) [Example 105, 6-(4-Chlorophenyl)-2-(3-fluorophenyl)-N-(cis-2-hydroxycyclohexyl)-3-oxo-2,3-dihydropyridazine-4-carboxamide]
5.02e-08 M	> 2e-05 M	–	COc1ccc(-c2cc(C(=O)NC(C)C(C)O)c(=O)n(-c3cccc(F)c3)n2)cc1 (stereo not shown) [Example 138, 2-(3-Fluorophenyl)-N-(3-hydroxybutan-2-yl)-6-(4-methoxyphenyl)-3-oxo-2,3-dihydropyridazine-4-carboxamide]
1.09e-08 M	> 2e-05 M	–	COc1ccc(-c2cc(C(=O)NC(CO)C(F)(F)F)c(=O)n(-c3cccc(F)c3)n2)cc1 (stereo not shown) [Example 100, 2-(3-Fluorophenyl)-6-(4-methoxyphenyl)-3-oxo-N-(1,1,1-trifluoro-3-hydroxypropan-2-yl)-2,3-dihydropyridazine-4-carboxamide]
3.13e-08 M	> 2e-05 M	–	O=C(NCC(O)C(F)(F)F)c1cc(-c2ccc(C(F)(F)F)cc2)nn(-c2cccc(F)c2)c1=O (single isomer, unassigned; (-)) [Example 243]
1.16e-07 M	> 2e-05 M	–	CC(NC(=O)c1cc(-c2ccc(Cl)cc2)nn(-c2cccc(F)c2)c1=O)C(O)C(F)(F)F (racemic) [Example 216, 6-(4-Chlorophenyl)-2-(3-fluorophenyl)-3-oxo-N-[(2RS,3RS)-4,4,4-trifluoro-3-hydroxybutan-2-yl]-2,3-dihydropyridazine-4-carboxamide and 6-(4-Chlorophenyl)-2-(3-fluorophenyl)-3-oxo-N-[(2RS,3SR)-4,4,4-trifluoro-3-hydroxybutan-2-yl]-2,3-dihydropyridazine-4-carboxamide]
1.43e-07 M	–	> 2e-05 M	O=C(N[C@H]1COC[C@@H]1O)c1cc(-c2ccc(Cl)cc2)nn(-c2cccc(F)c2)c1=O (single isomer, unassigned) [Example 136, 6-(4-Chlorophenyl)-2-(3-fluorophenyl)-N-(trans-4-hydroxytetrahydrofuran-3-yl)-3-oxo-2,3-dihydropyridazine-4-carboxamide]
